A short description of data set [1]: Hepatocyte stability of LaKe, rat. The data set is classed as in vitro ADME. As to conditions: cryopreserved hepatocytes.
The nature of data set [2]: Stability of LaKe upon storage (neat, GC-FID). The data set is classed as physicochemical. The following applies: ambient temperature. As to the method:
Following preparation, LaKe was analyzed by GC-FID. Subsequently, LaKe was stored neat at either −15, 0, and 20 °C and the samples were reanalyzed after 24 months. Table S1 (Supporting Information) contains the corresponding stability data and the GC-FID conditions applied.

Each structure is given as a SMILES string. Where only a bound is given, the exact number is not on record here.

What is called half-life is how long it takes for the measured level to halve. A higher half-life goes with slow loss.

Compound `CC(O)CCOC(=O)C(C)O` (centres unmarked) [LaKe, 3-hydroxybutyl 2-hydroxypropanoate] came in with a half-life at 0.1 mg/mL in data set [1] below 30 min. The “stability to storage in the neat state” value in data set [2] is listed as “at least 2 years”.

These data come from article PMC11403612, “Preparation and Preclinical Characterization of a Simple Ester for Dual Exogenous Supply of Lactate and Beta-hydroxybutyrate” (Journal of Agricultural and Food Chemistry, 2024).
